Reference: patent US5856535A, “Aminosterol ester compounds” (priority 1996, dated 1999)
Values after ≈ are worked out from the molar mass of the structure shown. Where two headings read alike, the source gives them in different places.

Tests used:
melanoma cells = assay: MTT assay for cell number; assay type: cell-based; settings: for minimal effective concentration: 48 h, Table II, read-out: Minimum Effective Concentration, MTT assay; for IC50: read-out: MTT assay IC50
Method: In Table V, several aminosterol esters show efficacy in killing melanoma cells in the MTT assay.
The MTT assay for cell number is performed as follows. Cells are counted on a hemocytometer and diluted to a concentration of approx. 10,000 cells/well (55,000 cells/ml×0.18 ml). Cells are then plated in a 96 well microtiter plate and allowed to attach overnight. The next day, compounds are serially diluted from 1000 to 15.6 μg/ml and run in duplicate. 20 μl of each dilution are transferred to the pre-seeded microtiter plates. The final concentrations are 100 to 1.56 μg/ml. The plates are then incubated for 48 hours at 37° C. in 5% CO2. After 48 hours, MTT solution is added. The plate is re-incubated for 4 hours. Readings are done by removing all but 30 μl of media and MTT solution and dissolving the formazan crystals with DMSO. The formazan is dissolved by mixing on a rotating plate at low speed for about 30 minutes. Absorbance of converted dye is measured at a wavelength of 560 nm with background subtraction at 630 nm. The percent survival is determined by a comparison between the mean absorbance of the duplicate test lanes and the growth control.

[1] = tested on: chick embryo vitelline capillaries; assay: chick embryo vitelline capillary regression assay; assay type: in vivo; parameters: key to Chick embryo vitelline capillary regression: +: Vascular reactivity; 0: No vascular reactivity; +/-: Equivocal reactivity; settings: for effect on vitelline capillaries (in words): 3- to 5-day chick embryo; for Chick embryo vitelline capillary regression: 60 minutes
Method: Using the chick embryo vitelline capillaries assay, various aminosterol compounds were tested for their ability to induce capillary regression. Each compound was applied in 0.1 ml of 15% Ficol 400 and PBS onto the embryo, and vascular regression was assessed after 60 minutes. These tests were conducted by the chorioallantoic membrane anti-angiogenesis assay by applying the material to be assayed to 3 day old fertilized chick embryos in the manner described by Wilks et al., "Inhibition of Angiogenesis With Combination Angiostatic Steroids and Suramin," Radiation Biology, Vol. 60, Nos. 1/2, 1991, pp. 73-77, which article is entirely incorporated herein by reference.
The 3-day chick embryo consists of an embryonic disc from which numerous vessels emerge and return, forming a "figure 8"-shaped structure--the embryo in the center with vascular loops extending outward over both poles. […] Following a lag period of around 15 minutes, the constriction of continuity between capillary and secondary vessels, generally on the "venous" side, was observed. Continued pulsatile blood flow progressed, resulting in a "swelling" of the blind tube, followed by a pinching off of the remaining connection and formation of an enclosed vascular sac resembling a "blood island." This process progressed until only the largest vessels remained intact.

[2] = inhibition of MSI-1436 binding; settings: 3H-MSI-1436 at 20 μg/mL
[3] = tested on: Xenopus laevis Stages 59-60 tadpoles; assay: tadpole assay; assay type: in vivo; settings: 10 μg/ml where stated
splenocytes = assay: mitogen proliferation assay (splenocytes of treated mice, Con A); assay type: in vivo; settings: for Rel. potency to MSI-1436, Mitogen Proliferation Assay: 10 mg/kg iv
Method: For the attached Tables, the mitogen proliferation assay was performed by treating mice (male or female) with various amounts of the aminosterol test compounds. Some time later (typically between 2 hours and 14 days), the mice are sacrificed and their spleens removed. Splenocytes are harvested and cultured in the presence of between 1-10 μg/ml of Con A (Sigma) for 48 hours. See James Morgan, "Monoclonal Antibody Production," Modern Methods in Pharmacology, pp. 29-67, eds., Spector and Back, 1988. This excerpt is entirely incorporated herein by reference. Cell proliferation is monitored either by direct cell counting or by measurement of the incorporation of radioactive thymidine.

P. aerug = assay: antibiotic activity, P. aerug; assay type: cell-based

Compound: CC(CCC(=O)O)[C@H]1CCC2C3CC[C@H]4C[C@@H](NCCCNCCCCN)CC[C@]4(C)C3CC[C@@]21C (stereo partly shown)
- minimal effective concentration (melanoma cells): 13.8 µg/mL

Compound: C[C@H](CCC(=O)O)[C@H]1CC[C@H]2[C@@H]3[C@H](O)C[C@@H]4C[C@@H](NCCN)CC[C@]4(C)[C@H]3CC[C@]12C [Compound 415]
- effect on vitelline capillaries (in words) [1]: especially active

Compound: COC(=O)CCC(C)[C@H]1CCC2C3C(CC[C@@]21C)[C@@]1(C)CC[C@@H](NCCCNCCCCNCCCN)C[C@@H]1C[C@H]3O (stereo partly shown)
- IC50 (melanoma cells; Tables III-V): 7.8 µg/mL (≈ 13.2 µM)
- % Inhib. of MSI-1436 Binding @ 100 μg/mL [2]: 15%

Compound: COC(=O)CC[C@@H](C)[C@H]1CC[C@H]2[C@@H]3C[C@@H](O)[C@H]4C[C@@H](NCCN)CC[C@]4(C)[C@H]3CC[C@]12C [Compound 432]
- effect on embryonic epithelium / epithelial shedding (in words) [3]: functionally similar to compound 1437

Compound: COC(=O)CCC(C)[C@H]1CCC2C3C(CC[C@@]21C)[C@@]1(C)CC[C@@H](NCCN)C[C@H]1C[C@H]3O (stereo partly shown) [drawing 70]
- minimal effective concentration (melanoma cells): 2.6 µg/mL

Compound: COC(=O)CCC(C)[C@H]1CCC2C3C(CC[C@@]21C)[C@@]1(C)CC[C@H](NCCN)C[C@H]1C[C@H]3O (stereo partly shown)
- IC50 (melanoma cells; Tables III-V): 5.3 µg/mL (≈ 11.8 µM)

Compound: CC(CCC(=O)O)[C@H]1CCC2C3C(CC[C@@]21C)[C@@]1(C)CC[C@@H](NCCCNCCCCN)C[C@@H]1C[C@H]3O (stereo partly shown)
- minimal effective concentration (melanoma cells): 58.6 µg/mL

Compound: COC(=O)CC[C@@H](C)[C@H]1CC[C@H]2[C@@H]3C[C@@H](O)[C@H]4C[C@@H](NCCCN5CCN(CCCN)CC5)CC[C@]4(C)[C@H]3CC[C@]12C [Compound 469]
- IC50 (melanoma cells): 2 µg/mL (≈ 3.4 µM)
- % Inhib. of MSI-1436 Binding @ 100 μg/mL [2]: 110%
- Rel. potency to MSI-1436, Mitogen Proliferation Assay (splenocytes): 1.6
- potency in the mitogen proliferation assay (in words) (splenocytes; mouse, in vivo): higher potency in the mitogen proliferation assay than compound 1436

Compound: COC(=O)CCC(C)[C@H]1CCC2C3CC[C@H]4C[C@H](NCCCNCCCCNCCCN)CC[C@]4(C)C3CC[C@@]21C (stereo partly shown) [drawing 84]
- minimal effective concentration (melanoma cells): 6.8 µg/mL

Compound: COC(=O)CCC(C)[C@H]1CCC2C3C[C@@H](O)[C@H]4C[C@@H](NCCCNCCCCN)CC[C@]4(C)C3CC[C@@]21C (stereo partly shown)
- IC50 (melanoma cells; Tables III-V): 12 µg/mL (≈ 22.5 µM)
- % Inhib. of MSI-1436 Binding @ 100 μg/mL [2]: 57%

Compound: COC(=O)CC[C@@H](C)[C@H]1CC[C@H]2[C@@H]3CC[C@@H]4C[C@H](NCCN)CC[C@]4(C)[C@H]3C[C@H](O)[C@]12C [Compound 416]
- effect on embryonic epithelium / epithelial shedding (in words) [3]: functionally similar to compound 1437

Compound: C[C@H](CCC(=O)O)[C@H]1CC[C@H]2[C@@H]3CC[C@H]4C[C@H](NCCCNCCCCN)CC[C@]4(C)[C@H]3CC[C@]12C [Compound 318]
- Chick embryo vitelline capillary regression ([1]; 1 μg applied): 0

Compound: CC(CCC(=O)O)[C@H]1CCC2C3C(CC[C@@]21C)[C@@]1(C)CC[C@H](NCCCNCCCCNCCCN)C[C@H]1C[C@H]3O (stereo partly shown) [drawing 43]
- MIC (P. aerug): 64 µg/mL (≈ 111 µM)

Compound: CC(CCC(=O)O)[C@H]1CCC2C3C[C@@H](O)[C@H]4C[C@@H](NCCCNCCCCNCCCN)CC[C@]4(C)C3CC[C@@]21C (stereo partly shown)
- % Inhib. of MSI-1436 Binding @ 100 μg/mL [2]: -69%
- Rel. potency to MSI-1436, Mitogen Proliferation Assay (splenocytes): 0.22

Compound: COC(=O)CC[C@@H](C)[C@H]1CC[C@H]2[C@@H]3[C@H](O)C[C@H]4C[C@@H](NCCCNCCCCNCCCN)CC[C@]4(C)[C@H]3CC[C@]12C [Compound 396]
- Chick embryo vitelline capillary regression ([1]; 0.001 μg applied): 0
- Chick embryo vitelline capillary regression ([1]; 0.01 μg applied): 0
- Chick embryo vitelline capillary regression ([1]; 0.1 μg applied): 0

Compound: C[C@H](CCC(=O)O)[C@H]1CC[C@H]2[C@@H]3CC[C@H]4C[C@@H](NCCCNCCCCN)CC[C@]4(C)[C@H]3CC[C@]12C [Compound 319]
- Chick embryo vitelline capillary regression ([1]; 0.001 μg applied): +/-
- Chick embryo vitelline capillary regression ([1]; 0.01 μg applied): +
- Chick embryo vitelline capillary regression ([1]; 0.1 μg applied): +
- Chick embryo vitelline capillary regression ([1]; 1 μg applied): +
- Chick embryo vitelline capillary regression ([1]; 10 μg applied): +
- effect on vitelline capillaries (in words) [1]: especially active
- vascular effect in tadpole (in words) ([3]; about 60 minutes): common vascular occlusive effect

Compound: CC(CCC(=O)O)[C@H]1CCC2C3C(CC[C@@]21C)[C@@]1(C)CC[C@H](NCCCNCCCCNCCCN)C[C@H]1C[C@H]3O (stereo partly shown) [drawing 86]
- minimal effective concentration (melanoma cells): 18.1 µg/mL
